Test results: ChEMBL document CHEMBL3217720, “Identification of an inhibitor of the ubiquitinproteasome system that induces accumulation of polyubiquitinated proteins in the absence of blocking of proteasome function” (Medchemcomm, 2014)
Calls of active or inactive are those of the source. No cut-off for these calls is given here.

Columns and labels:
MelJuSo UbG76V-YFP [1] = experiment: Inhibition of Ubiquitin-proteasome system in human MelJuSo UbG76V-YFP cells assessed as accumulation of UbG76V-YFP protein at 5 to 10 uM after 18 hrs by immunoblot method; assay type: cell-based
MelJuSo UbG76V-YFP [2] = experiment: Inhibition of Ubiquitin-proteasome system in human MelJuSo UbG76V-YFP cells assessed as HSP70B' accumulation 5 to 10 uM after 18 hrs by immunoblot method; assay type: cell-based
MelJuSo UbG76V-YFP [3] = experiment: Inhibition of Ubiquitin-proteasome system in human MelJuSo UbG76V-YFP cells assessed as accumulation of K48-linked poly-ubiquitinated proteins at 5 to 10 uM after 18 hrs by immunoblot method; assay type: cell-based
MelJuSo UbG76V-YFP [4] = experiment: Inhibition of Ubiquitin-proteasome system in human MelJuSo UbG76V-YFP cells assessed as Hmox-1 accumulation 5 to 10 uM after 18 hrs by immunoblot method; assay type: cell-based
Homo sapiens = species on record: Homo sapiens; experiment: (§1) Cytotoxicity against human Pseudomyxoma peritonei cells after 3 days by FMCA method; assay type: functional, cell-based
[5] = biological target: T1, 26S proteasome (Homo sapiens) (UniProt Q99460+P49721+P20618+P28074+P28062+P28065+P28072+O00487+P25786+P25787+P25788+P25789+P28066+P60900+O14818+Q8TAA3+P40306+A5LHX3+P49720+P28070+Q99436+Q16186+P35998+P62191+P43686+P62333+P17980+P62195+Q13200+O43242+O00232+O00231+Q15008+P51665+Q9UNM6+P55036+P48556+P60896); details: MelJuSo UbG76V-YFP, 0.1 uM
Description: Inhibition of 20S proteasome in human MelJuSo UbG76V-YFP cells assessed as accumulation of K48-linked poly-ubiquitinated proteins at 0.1 uM after 6 hrs by immunoblot method

Cancer cell lines = experiment: (§2) Cytotoxicity against human Colon cancer cells after 3 days by FMCA method; assay type: functional, cell-based
[6] = biological target: T1, 26S proteasome (Homo sapiens); details: MelJuSo UbG76V-YFP, 0.1 uM; remark: listed apart in the source
Description: Inhibition of 20S proteasome in human MelJuSo UbG76V-YFP cells assessed as accumulation of UbG76V-YFP protein at 0.1 uM after 6 hrs by immunoblot method

CLL = experiment: (§3) Cytotoxicity against human CLL cells after 3 days by FMCA method; assay type: functional, cell-based
[7] = as §1; assay type: functional, cell-based; details: 72 h
HL-60 = experiment: Cytotoxicity against human HL60 cells after 3 days by FMCA method; assay type: functional, cell-based; details: HL-60, 72 h
[8] = Cytotoxicity against human NCI-H929 cells after 3 days by FMCA method; assay type: functional, cell-based; details: NCI-H929, 72 h
[9] = Cytotoxicity against human 8226/DOX40 cells after 3 days by FMCA method; assay type: functional, cell-based; details: 72 h
MelJuSo UbG76V-YFP [10] = experiment: Inhibition of Ubiquitin-proteasome system in human MelJuSo UbG76V-YFP cells assessed as accumulation of K48-linked poly-ubiquitinated proteins at 5 to 100 uM after 18 hrs by immunoblot method; assay type: cell-based
CCRF-CEM = experiment: Cytotoxicity against human CCRF-CEM cells after 3 days by FMCA method; assay type: functional, cell-based; details: 72 h
[11] = biological target: T1, 26S proteasome (Homo sapiens); experiment: Inhibition of erythrocyte 20S proteasome (unknown origin) assessed as inhibition of chymotrypsin activity at 10 uM after 15 mins using Suc-LLVY-AMC substrate by fluorescence assay; assay type: protein-complex assay
MelJuSo UbG76V-YFP [12] = experiment: Inhibition of Ubiquitin-proteasome system in human MelJuSo UbG76V-YFP cells assessed as accumulation of UbG76V-YFP protein at 5 uM; assay type: cell-based
[13] = biological target: T1, 26S proteasome (Homo sapiens); experiment: Inhibition of erythrocyte 20S proteasome (unknown origin) assessed as inhibition of chymotrypsin activity at 50 uM after 15 mins using Suc-LLVY-AMC substrate by fluorescence assay; assay type: protein-complex assay
MelJuSo UbG76V-YFP [14] = experiment: Inhibition of Ubiquitin-proteasome system in human MelJuSo UbG76V-YFP cells assessed as accumulation of K48-linked poly-ubiquitinated proteins at 5 uM by immunoblot method; assay type: cell-based
HEK293 = experiment: Inhibition of Ubiquitin-proteasome system in human HEK293 cells assessed as accumulation of ornithine decarboxylase-green fluorescent fusion protein at 5 uM after 16 hrs; assay type: cell-based
[15] = Cytotoxicity against human MelJuSo cells after 3 days by FMCA method; assay type: functional, cell-based; details: MEL-JUSO, 72 h
MelJuSo UbG76V-YFP [16] = experiment: Inhibition of Ubiquitin-proteasome system in human MelJuSo UbG76V-YFP cells assessed as accumulation of UbG76V-YFP protein at 5 uM after 18 hrs by immunoblot method; assay type: cell-based
[17] = Cytotoxicity against human RPMI18226 cells after 3 days by FMCA method; assay type: functional, cell-based; details: RPMI18226, 72 h
HCT-116 = experiment: Cytotoxicity against human HCT116 cells after 3 days by FMCA method; assay type: functional, cell-based; details: HCT-116, 72 h
MelJuSo UbG76V-YFP [18] = experiment: Inhibition of Ubiquitin-proteasome system in human MelJuSo UbG76V-YFP cells assessed as p21 accumulation 20 to 50 uM after 18 hrs by immunoblot method; assay type: cell-based
[19] = as §2; assay type: functional, cell-based; details: Cancer cell lines, 72 h
MelJuSo UbG76V-YFP [20] = experiment: Inhibition of Ubiquitin-proteasome system in human MelJuSo UbG76V-YFP cells assessed as HSP70B' accumulation 5 to 20 uM after 18 hrs by immunoblot method; assay type: cell-based
Kasumi 1 = experiment: Cytotoxicity against human Kasumi-1 cells after 3 days by FMCA method; assay type: functional, cell-based; details: Kasumi 1, 72 h
MelJuSo UbG76V-YFP [21] = experiment: Inhibition of Ubiquitin-proteasome system in human MelJuSo UbG76V-YFP cells assessed as HSP70B' accumulation 50 uM after 18 hrs by immunoblot method; assay type: cell-based
MelJuSo UbG76V-YFP [22] = experiment: Inhibition of Ubiquitin-proteasome system in human MelJuSo UbG76V-YFP cells assessed as accumulation of K48-linked poly-ubiquitinated proteins at 10 uM after 18 hrs by immunoblot method; assay type: cell-based
[23] = as §3; assay type: functional, cell-based; details: 72 h
MelJuSo UbG76V-YFP [24] = experiment: Inhibition of Ubiquitin-proteasome system in human MelJuSo UbG76V-YFP cells assessed as accumulation of UbG76V-YFP protein at 50 uM after 18 hrs by immunoblot method; assay type: cell-based

CC1(C)C(N(O)C(=O)Nc2ccc(Cl)cc2)N(c2ccc(Cl)cc2)C(=O)N1CC(=O)N/N=C/C=C/c1ccc([N+](=O)[O-])o1 (stereo unspecified)
inhibition (MelJuSo UbG76V-YFP [1]): inactive | inhibition (MelJuSo UbG76V-YFP [2]): inactive | inhibition (MelJuSo UbG76V-YFP [3]): Active | inhibition (MelJuSo UbG76V-YFP [4]): Active

COc1cc(/C=C/C(=O)N2CCC=CC2=O)cc(OC)c1OC
inhibition (MelJuSo UbG76V-YFP [2]): inactive

CC(C)C[C@H](NC(=O)[C@H](Cc1ccccc1)NC(=O)c1cnccn1)B(O)O
inhibition (Homo sapiens): Active | inhibition [5]: Active | inhibition (Cancer cell lines): Active | inhibition [6]: Active | inhibition (CLL): Active

O=P(Oc1ccccc1)(Oc1ccccc1)OC1C=CS(=O)(=O)C1 (stereo unspecified)
IC50 [7]: 510 nM | inhibition (MelJuSo UbG76V-YFP [1]): inactive | inhibition (MelJuSo UbG76V-YFP [2]): inactive | IC50 (HL-60): 2500 nM | IC50 [8]: 610 nM | IC50 [9]: 2800 nM | inhibition (MelJuSo UbG76V-YFP [10]): Active | IC50 (CCRF-CEM): 1800 nM | inhibition [11]: inactive | inhibition (MelJuSo UbG76V-YFP [12]): Active | inhibition [13]: Active | inhibition (MelJuSo UbG76V-YFP [14]): Active | inhibition (HEK293): Active | IC50 [15]: 5400 nM | inhibition (MelJuSo UbG76V-YFP [3]): Active | inhibition (MelJuSo UbG76V-YFP [16]): inactive | IC50 [17]: 1300 nM | IC50 (HCT-116): 5800 nM | inhibition (MelJuSo UbG76V-YFP [4]): Active | inhibition (MelJuSo UbG76V-YFP [18]): Active | IC50 [19]: 1700 nM | inhibition (MelJuSo UbG76V-YFP [20]): inactive | IC50 (Kasumi 1): 1900 nM | inhibition (MelJuSo UbG76V-YFP [21]): Active | inhibition (MelJuSo UbG76V-YFP [22]): Active | IC50 [23]: 690 nM | inhibition (MelJuSo UbG76V-YFP [24]): Active

O=C(CCl)Nc1cccc(NC2=NS(=O)(=O)c3ccccc32)c1
inhibition (MelJuSo UbG76V-YFP [1]): inactive | inhibition (MelJuSo UbG76V-YFP [2]): inactive | inhibition (MelJuSo UbG76V-YFP [3]): Active | inhibition (MelJuSo UbG76V-YFP [4]): Active
